Assay results as given in patent US7605272B2, “IGF-1R inhibitor” (Kyowa Hakko Kirin Co., Ltd., priority 2005, dated 2009).
Where two headings read alike, the source gives them in different places.

Tests used:
NCI-H929 = experiment: Cytostatic activity on human multiple myeloma cell line NCI-H929 (WST-1); type: cell-based; conditions: for inhibition at 1 µM / inhibition at 10 µM: Homo sapiens, NCI-H929, 72 h; for inhibition at 1 µM: read-out: cytostatic rate (%) H929 (1 μmol/L); for inhibition at 10 µM: 10 μmol/L, read-out: cytostatic rate (%) H929 (10 μmol/L)
Procedure: (§1) The cytostatic rates of a test compound on human multiple myeloma cell lines NCI-H929 and KMS-11, were determined in the following manner.
(§2) For culturing NCI-H929, Roswell Park Memorial Institute's Medium (RPMI) 1640 (Gibco, Catalog No. 11875-093) containing 15% fetal bovine serum (Gibco, Catalog No. 10099-141), 1 mmol/L sodium pyruvate (Gibco, Catalog No. 11360-070), 10 mmol/L HEPES (Gibco, Catalog No. 15630-80), 4.5 g/L glucose (Sigma, Catalog No. G8769), 0.05 mmol/L 2-mercaptethanol (Nacalai Tesque, Catalog No. 21418-42) and penicillin/streptomycin (1:1) (Gibco, Catalog No. 15140-122) was used. For culturing KMS-11 cell, RPMI 1640 medium containing 10% fetal bovine serum and penicillin/streptomycin (1:1) was used. Each 80 μL of the NCI-H929 cell having a concentration of 1×10^5 cells/mL (or the KMS-11 cell having a concentration of 7.5×10^4 cells/mL) was inoculated to wells of a TC MICROWELL 96U plate (Nalge Nunc International, Catalog No. 163320) and was cultured in a 5% carbon dioxide gas incubator at 37° C. for 24 hours. Each 20 μL of a solution of the test compound in dimethyl sulfoxide (DMSO) which was prepared to make the final concentration to 1 μmol/L or 10 μmol/L, was added to each well. Each 20 μL of DMSO was added to the control well and the blank well to a final concentration of 0.1%. After adding the test compound, the cells were incubated in a 5% carbon dioxide gas incubator at 37° C. for 72 hours except for the blank well. After adding 20 μL of WST-1 reagent {4-[3-(4-iodophenyl)-2-(4-nitrophenyl)-2H-5-tetrazolio]-1,3-benzene disulfonate sodium salt} (Roche Diagnostics K.K., Catalog No. 1644807), which was diluted to 50% by RPMI medium to each well, the cells were further incubated at 37° C. for 2 hours. Then, the absorbances at 450 nm (reference wavelength: 690 nm) were measured with a microplate spectrophotometer SPECTRA max 340PC (Molecular Devices Corporation). The relative growth (%) of a well to which the test compound had been added and cultured for 72 hours was determined while setting the absorbance of a well to which not the test compound but DMSO alone had been added and cultured for 72 hours (control) as 100% and that of a well where the drugs are added (blank) as 0%. The cytostatic rate (%) of the test compound was determined by subtracting the calculated relative growth from 100.

KMS-11 = experiment: Cytostatic activity on human multiple myeloma cell line KMS-11 (WST-1); type: cell-based; conditions: Homo sapiens, 72 hours; for inhibition at 10 µM: 10 μmol/L, read-out: cytostatic rate (%) KMS-11 (10 μmol/L)
Procedure: as §1, §2

IGF-1R = molecular target: T1, IGF-1R (Homo sapiens, UniProt P08069); experiment: IGF-1R inhibitory activity (kinase reaction, time-resolved fluoroimmunoassay); type: biochemical; conditions: test compound 10 μmol/L
T1 construct: purchased Upstate Co. 14-465
T1 sequence (P08069 959-1367 limits assumed): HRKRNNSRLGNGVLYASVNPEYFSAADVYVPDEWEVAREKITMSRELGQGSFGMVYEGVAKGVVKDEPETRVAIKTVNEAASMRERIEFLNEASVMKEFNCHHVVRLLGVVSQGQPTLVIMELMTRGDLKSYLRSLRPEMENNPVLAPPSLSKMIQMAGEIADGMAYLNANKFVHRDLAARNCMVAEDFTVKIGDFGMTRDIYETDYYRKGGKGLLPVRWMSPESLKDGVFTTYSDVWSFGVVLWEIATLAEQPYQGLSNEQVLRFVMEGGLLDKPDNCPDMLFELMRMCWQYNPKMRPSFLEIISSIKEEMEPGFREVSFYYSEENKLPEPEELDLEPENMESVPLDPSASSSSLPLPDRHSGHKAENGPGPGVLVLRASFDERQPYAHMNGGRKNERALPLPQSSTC
Outline: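 Compounds were tested at a single 10 μmol/L concentration. Each was incubated with recombinant IGF-1R (200 μg/L), 10 mmol/L ATP, MgCl2/MnCl2 and Na3VO4 (pH 7.5) on immobilized poly(Glu-Tyr) peptide for 30 min at 24° C. Eu-anti-phosphotyrosine time-resolved fluorescence (340/615 nm) gave relative activity against no-compound and no-enzyme wells, reported as % inhibition.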

[1] = IGF-1R active recombinant enzyme

| SMILES | inhibition at 10 µM (IGF-1R; [1]) [%] | inhibition at 10 µM (IGF-1R) [%] | inhibition at 10 µM (NCI-H929; 72 hours) [%] | inhibition at 10 µM (KMS-11; KMS-11, 72 h) [%] | other results |
| --- | --- | --- | --- | --- | --- |
| CN[C@@H]1CN(CCCOc2ccc(/C=C/c3n[nH]c4ccccc34)c(NC(=O)c3sccc3C)c2OC)C[C@H]1OC (relative stereo) [Compound 348, (E)-N-(6-[2-(1H-indazol-3-yl)vinyl]-2-methoxy-3-{3-[(3R*,4R*)-3-methoxy-4-(methylamino)pyrrolidin-1-yl]propoxy}phenyl)-3-methylthiophene-2-carboxamide] | 109 |  |  |  | inhibition at 1 µM (NCI-H929; 1 μmol/L, 72 hours): 116%; inhibition at 1 µM (KMS-11; KMS-11, 72 h, 1 μmol/L, read-out: cytostatic rate (%) KMS-11 (1 μmol/L)): 117% |
| O=[N+]([O-])c1ccccc1/C=C/c1n[nH]c2ccccc12 [Compound 1, (E)-3-[2-(2-nitrophenyl)vinyl]-1H-indazole] | 71.2 |  | 105 | 80.2 |  |
| COC(=O)c1ccc(/C=C/c2n[nH]c3ccccc23)c(NC(=O)c2sccc2C)c1 [Compound 97, (E)-4-[2-(1H-indazol-3-yl)vinyl]-3-[(3-methylthiophen-2-ylcarbonyl)amino]benzoic acid methyl ester] |  | 97.1 |  | 100 |  |
| Cc1ccsc1C(=O)Nc1cc(C(=O)N2CCNCC2)ccc1/C=C/c1n[nH]c2ccccc12 [Compound 99, (E)-N-{2-[2-(1H-indazol-3-yl)vinyl]-5-(piperazin-1-ylcarbonyl)phenyl}-3-methylthiophene-2-carboxamide] |  | 97.4 |  | 118 |  |
| CCN(CC)C(=O)c1ccc(/C=C/c2n[nH]c3ccccc23)c(NC(=O)c2sccc2C)c1 [Compound 101, (E)-N-{5-(N,N-diethylcarbamoyl)-2-[2-(1H-indazol-3-yl)vinyl]phenyl}-3-methylthiophene-2-carboxamide] |  | 100 |  |  | inhibition at 10 µM (KMS-11; KMS-11): 117% |
| Cc1ccsc1C(=O)Nc1ccc(OCCN2CCOCC2)cc1/C=C/c1n[nH]c2ccccc12 [Compound 103, (E)-N-{2-[2-(1H-indazol-3-yl)vinyl]-4-(2-morpholinoethoxy)phenyl}-3-methylthiophene-2-carboxamide] |  | 97 | 130 |  |  |
| Cn1cccc1C(=O)Nc1ccc(OCCN2CCOCC2)cc1/C=C/c1n[nH]c2ccccc12 [Compound 104, (E)-N-{2-[2-(1H-indazol-3-yl)vinyl]-4-(2-morpholinoethoxy)phenyl}-1-methylpyrrole-2-carboxamide] |  | 98.3 | 130 |  |  |
| Nc1ccc(C(=O)Nc2ccc(OCCN3CCOCC3)cc2/C=C/c2n[nH]c3ccccc23)s1 [Compound 106, (E)-5-amino-N-{2-[2-(1H-indazol-3-yl)vinyl]-4-(2-morpholinoethoxy)phenyl}thiophene-2-carboxamide] |  |  | 112 | 115 |  |
| CCCNC(=O)c1ccc(/C=C/c2n[nH]c3ccccc23)c(NC(=O)c2sccc2C)c1 [Compound 112, (E)-N-{2-[2-(1H-indazol-3-yl)vinyl]-5-(N-propylcarbamoyl)-phenyl}-3-methylthiophene-2-carboxamide] |  | 98.5 |  | 126 |  |
| CCN(C)C(=O)c1ccc(/C=C/c2n[nH]c3ccccc23)c(NC(=O)c2sccc2C)c1 [Compound 113, (E)-N-{5-(N-ethyl-N-methylcarbamoyl)-2-[2-(1H-indazol-3-yl)vinyl]phenyl}-3-methylthiophene-2-carboxamide] |  | 98.6 |  | 121 |  |
| Cc1ccsc1C(=O)Nc1cc2c(cc1/C=C/c1n[nH]c3ccccc13)OCO2 [Compound 130, (E)-N-{6-[2-(1H-indazol-3-yl)vinyl]benzo[1,3]dioxol-5-yl}-3-methylthiophene-2-carboxamide] |  | 98.3 | 126 |  |  |
| Cn1cccc1C(=O)Nc1cc2c(cc1/C=C/c1n[nH]c3ccccc13)OCO2 [Compound 131, (E)-N-{6-[2-(1H-indazol-3-yl)vinyl]benzo[1,3]dioxol-5-yl}-1-methylpyrrole-2-carboxamide] |  | 94.1 | 122 |  |  |
| CC(=O)N1CCN(c2ccccc2/C=C/c2n[nH]c3ccccc23)CC1 [Compound 133, (E)-4-acetyl-1-{2-[2-(1H-indazol-3-yl)vinyl]phenyl}piperazine] | 70.4 |  | 62.9 |  |  |
| O=C(Nc1cc(C(=O)N2CCN(CCO)CC2)ccc1/C=C/c1n[nH]c2ccccc12)c1ccccc1 [Compound 290] |  |  |  |  | cytostatic rate (%) H929 (1 μmol/L) (NCI-H929; 1 μmol/L, 72 hours): 93.8%; inhibitory activity (%) at 10 μmol/L (IGF-1R; [1]): 95.7% |
| COC1CCN(C(=O)c2ccc(/C=C/c3n[nH]c4ccccc34)c(N3Cc4c(N)cccc4C3=O)c2)CC1 [Compound 310, (E)-4-amino-2-{2-[2-(1H-indazol-3-yl)vinyl]-5-(4-methoxypiperidin-1-ylcarbonyl)phenyl}-2,3-dihydroisoindole-1-one] | 97.9 |  |  |  | inhibition at 1 µM (NCI-H929; NCI-H929 cells, test compound 1 μmol/L, WST-1): 105% |

Further lines, with some results ahead:

| inhibition at 10 µM (IGF-1R; [1]) [%] | inhibition at 10 µM (IGF-1R) [%] | SMILES | inhibition at 10 µM (NCI-H929; 72 hours) [%] | inhibition at 10 µM (KMS-11; KMS-11, 72 h) [%] | other results |
| --- | --- | --- | --- | --- | --- |
| 99.1 |  | O=C(Nc1ccccc1/C=C/c1n[nH]c2ccccc12)c1ccc(F)cc1 [Compound 3, (E)-4-fluoro-N-{2-[2-(1H-indazol-3-yl)vinyl]phenyl}benzamide] | 115 | 118 |  |
| 98.5 |  | COc1ccc(C(=O)Nc2ccccc2/C=C/c2n[nH]c3ccccc23)cc1 [Compound 4, (E)-N-{2-[2-(1H-indazol-3-yl)vinyl]phenyl}-4-methoxybenzamide] | 114 | 130 |  |
| 99.1 |  | Cc1ccc(C(=O)Nc2ccccc2/C=C/c2n[nH]c3ccccc23)cc1 [Compound 5, (E)-N-{2-[2-(1H-indazol-3-yl)vinyl]phenyl}-4-methylbenzamide] | 116 | 129 |  |
| 97.8 |  | O=C(Nc1ccccc1/C=C/c1n[nH]c2ccccc12)c1cccnc1 [Compound 6, (E)-N-{2-[2-(1H-indazol-3-yl)vinyl]phenyl}nicotinamide] | 115 | 120 |  |
| 98.6 |  | O=C(Nc1ccccc1/C=C/c1n[nH]c2ccccc12)c1cccc(F)c1 [Compound 7, (E)-3-fluoro-N-{2-[2-(1H-indazol-3-yl)vinyl]phenyl}benzamide] | 115 | 121 |  |
| 99.5 |  | O=C(Nc1ccccc1/C=C/c1n[nH]c2ccccc12)c1ccccc1F [Compound 8, (E)-2-fluoro-N-{2-[2-(1H-indazol-3-yl)vinyl]phenyl}benzamide] | 118 | 126 |  |
| 74.3 |  | CC(=O)Nc1ccccc1/C=C/c1n[nH]c2ccccc12 [Compound 9, (E)-N-{2-[2-(1H-indazol-3-yl)vinyl]phenyl}acetamide] | 59 | 99.8 |  |
| 99.1 |  | O=C(Nc1ccccc1/C=C/c1n[nH]c2ccccc12)c1ccncc1 [Compound 10, (E)-N-{2-[2-(1H-indazol-3-yl)vinyl]phenyl}isonicotinamide] | 113 | 102 |  |
| 99.4 |  | O=C(Nc1ccccc1/C=C/c1n[nH]c2ccccc12)c1ccco1 [Compound 11, (E)-N-{2-[2-(1H-indazol-3-yl)vinyl]phenyl}furan-2-carboxamide] | 116 | 120 |  |
| 99 |  | OCc1ccn(-c2ccccc2/C=C/c2n[nH]c3ccccc23)c1 [Compound 168, (E)-1-{2-[2-(1H-indazol-3-yl)vinyl]phenyl}-1H-pyrrole-3-methanol] | 106 |  |  |
